# Experimental data from patent US20250000874A1, “BACTERIAL METABOLITES AND THEIR USE IN REDUCING INFLAMMATION” (LOYOLA UNIVERSITY OF CHICAGO, priority 2023, published 2025).
# Tests used:
# [1] = tested on: phosphorylated NFκB (ser536); experiment: NC on phospho-NFκB (ser536) levels in stimulated Raw 264.7 macrophages; type: cell-based, mouse
# Method: FIG. 31. Compound NC on phospho-NFκB (ser536) levels in stimulated macrophages. Raw 264.7 macrophages were incubated with 50 μM of NC for 18 hours prior to stimulation with LPS or Poly I:C. Whole cell lysates were collected after 2 hours and the level of phosphorylated NFκB (Phosphoserine 536) was quantified for endpoint absorbance at […] and normalized to absorbance of untreated, unstimulated cells. Mean and p values were computed using R base and dplyr packages using normalized values.
# TRIF can participate in TNFα signaling through two distinct mechanisms. Firstly, TRIF can signal NFκB through TRAF6 to increase TNFα transcription. Secondly, TRIF activation can enhance the translation of TNFα mRNA through prolonged MK-2 activation. To determine whether NC reduces TNFα release by blocking TNFα transcription or translation, we collected cell lysates and quantified the levels of phosphorylated NFκB (ser536). Lysates of Raw 264.7 cells treated with NC prior to stimulation with LPS or Poly I:C contained more phosphorylated NFκB (ser536) than untreated cells (FIG. 31). There was no difference in phosphorylated NFκB (ser536) in unstimulated cells treated with NC.
# Raw 264.7 Cells = experiment: JE on TNF-α and IL-6 production by Raw 264.7 cells upon TLR agonists; type: cell-based, mouse; details: for decrease in TNF-α production: vs untreated macrophages
# Method: (§1) FIG. 13. The Effect of JE on TNF-α Production by Raw 264.7 Cells Upon Stimulation with TLR Agonists. Macrophages were incubated overnight with JE at a concentration of 50 μM at t 37° C., 5% CO2. The following day, the macrophages were stimulated with 10 ng/ml of LPS, 1 μg/ml of FLG-St, 3 μg/ml of PAM-3csk, 1 μM of ODN and 20 μg/ml of Poly: IC for 3 hours. Supernatants were collected, and TNF-α was measured by ELISA. The data are presented as mean±SEM (n=6). *p<0.05; **p<0.01; ***p<0.001. One of three experiments is shown.
# FIG. 14. The Effect of JE on TNF-α Production by Raw 264.7 Cells Upon Stimulation with TLR Agonists. Macrophages were incubated overnight with JE at a concentration of 50 μM at 37° C., 5% CO2. The following day, the macrophages were stimulated with 1 μg/ml of FSL-1 2 μg/ml of Imiquimod for 3 hours. Supernatants were collected and TNF-α was measured by ELISA. Data are presented as mean±SEM (n=6). *p<0.05; **p<0.01; ***p <0.001. One of three experiments is shown.
# as §1, with “15.” for “13.”, “IL-6” for “TNF-α”, “TLR agonists at the same concentrations that I used” for “10 ng/ml of LPS, 1 μg/ml of FLG-St, 3 μg/ml of PAM-3csk, 1 μM of ODN and 20 μg/ml of Poly: IC”, “TNF-α induction.” for “3 hours.”
# Murine macrophages, both RAW 264.7 macrophages and bone marrow-derived macrophages (BMDMs), were seeded and then pretreated overnight with the metabolite JE. The following day, the macrophages were stimulated with one of TLR agonists, including LPS, FLA-ST, ODN, Pam3SCK4, Poly: IC LMW, FSL, and Imiquimod for 3 hours, then the production of TNF-α, and IL-6 in the culture supernatants was measured by ELISA.
# NLRP3 inflammasome = experiment: JE on IL-1β production by THP-1 macrophages upon NLRP3 activation; type: cell-based, human
# Method: FIG. 22. The Effect of JE on IL-1β Production by THP-1 Macrophages. THP-1 macrophages were pretreated with JE overnight at 37° C., 5% CO2. The next day, they were primed with LPS at 500 ng/ml for 4 hours then activated with 6.5 μM of nigericin for 30 minutes at 37 C, 5% CO2. Supernatants were collected and IL-1β production with ELISA. Data are presented as mean±SEM (n=6). *p<0.05. One of two experiments is shown.
# FIG. 23. The Effect of JE on IL-1β Production by THP-1 Macrophages: JE was used as a pretreatment when THP-1 macrophages were pretreated with JE overnight at 37° C., 5% CO2. The next day, they were primed with LPS at 500 ng/ml for 4 hours, then activated with 5 mM of ATP for 30 minutes at 37° C., 5% CO2. In the case when JE was used as a treatment, cells were primed with 10 ng/ml of LPS for 4 hours, then JE was added overnight at 37° C., 5% CO2. The following day, macrophages were activated with 5 mM of ATP for an hour. Supernatants were collected and IL-1β production with ELISA. Data are presented as mean±SEM (n=6). **p<0.01. One of two experiments is shown.
# We similarly tested THP-1 cells as described above. […] I collected the supernatant and measured IL-1β by ELISA. […]
# [2] = JE 50 μM overnight, TLR agonists 3 hours, vs media with TLR agonists
SMILES,"phosphorylated NFκB (ser536) level ([1]; 50 μM NC 18 hours, LPS, lysates after 2 hours)","phosphorylated NFκB (ser536) level ([1]; 50 μM NC 18 hours, Poly I:C, lysates after 2 hours)","phosphorylated NFκB (ser536) level ([1]; NC, unstimulated cells)","decrease in TNF-α production (Raw 264.7 Cells; JE 50 μM overnight, TLR 1/2 agonist PAM-3CSK)","TNF-α secretion (Raw 264.7 Cells; JE 50 μM overnight, TLR2/6 agonist FSL-1)","TNF-α production (Raw 264.7 Cells; JE 50 μM overnight, TLR4 agonist LPS)","decrease in TNF-α production (Raw 264.7 Cells; JE 50 μM overnight, TLR 5 agonist FLG-ST)","TNF-α production (Raw 264.7 Cells; JE 50 μM overnight, TLR7 agonist Imiquimod)",production of IL-6 (Raw 264.7 Cells; [2]),production of TNF-α (Raw 264.7 Cells; [2]),"TNF-α secretion (Raw 264.7 Cells; JE 50 μM overnight, TLR-3 agonist Poly: IC LMW)","decrease in IL-6 secreted (Raw 264.7 Cells; JE pretreatment, LPS, relative to untreated macrophages)",IL-1β production upon NLRP3 activation (NLRP3 inflammasome; JE added before priming with LPS (pretreatment overnight)),IL-1β production upon NLRP3 activation (NLRP3 inflammasome; JE after priming with LPS and before adding ATP)
"CCCCCCCCCCCCCCCC(=O)N[C@@H](C(=O)O)[C@H](C)O [NC, N-Palmitoyl-D-Threonine]",more and significantly decreases,more and significantly decreases,no difference,–,–,–,–,–,–,–,–,–,–,–
"CC(=O)O[C@@H]1CC[C@H]2[C@H]3CC[C@H]4CC(F)(F)CC[C@]4(C)[C@H]3CC[C@]12C [JE, 3,3-Difluoro-5-alpha-androstan-17-beta-yl acetate]",–,–,–,4 fold,completely abolished,reduced,4 fold,reduced,significantly reduced,significantly reduced,completely abolished,4 fold,could decrease,still detected robust production
